In ChEMBL document CHEMBL3045485, “Synthesis of combretastatin analogs: evaluation of in vitro anticancer activity and molecular docking studies” (Med Chem Res, 2012):

Experiments:
COLO 205 [1] = assay: Cytotoxicity against Homo sapiens (human) COLO205 cells after 48 hr by SRB assay; assay type: functional, cell-based; conditions: COLO 205, 48 h, pooled result: one value given for 7 cell lines, strains, targets or settings
PC-3 [2] = assay: Cytotoxicity against Homo sapiens (human) PC3 cells assessed as growth inhibition at 1 x 10^-4 mole after 48 hr by SRB assay; assay type: functional
A549 [3] = assay: Cytotoxicity against Homo sapiens (human) A549 cells assessed as growth inhibition at 5 x 10^-5 mole after 48 hr by SRB assay; assay type: functional
MCF7 [4] = assay: Cytotoxicity against Homo sapiens (human) MCF-7 cells assessed as growth inhibition at 1 x 10^-4 mole after 48 hr by SRB assay; assay type: functional
A549 [5] = assay: Cytotoxicity against Homo sapiens (human) A549 cells assessed as growth inhibition at 1 x 10^-4 mole after 48 hr by SRB assay; assay type: functional
IGROV-1 [6] = assay: Cytotoxicity against Homo sapiens (human) IGROV1 cells assessed as growth inhibition at 1 x 10^-4 mole after 48 hr by SRB assay; assay type: functional
PC-3 [7] = assay: Cytotoxicity against Homo sapiens (human) PC3 cells assessed as growth inhibition at 5 x 10^-5 mole after 48 hr by SRB assay; assay type: functional
SF-295 [8] = assay: Cytotoxicity against Homo sapiens (human) SF295 cells assessed as growth inhibition at 5 x 10^-5 mole after 48 hr by SRB assay; assay type: functional
MCF7 [9] = assay: Cytotoxicity against Homo sapiens (human) MCF-7 cells assessed as growth inhibition at 5 x 10^-5 mole after 48 hr by SRB assay; assay type: functional
IGROV-1 [10] = assay: Cytotoxicity against Homo sapiens (human) IGROV1 cells assessed as growth inhibition at 5 x 10^-5 mole after 48 hr by SRB assay; assay type: functional
SF-295 [11] = assay: Cytotoxicity against Homo sapiens (human) SF295 cells assessed as growth inhibition at 1 x 10^-4 mole after 48 hr by SRB assay; assay type: functional
COLO 205 [12] = assay: Cytotoxicity against Homo sapiens (human) COLO205 cells assessed as growth inhibition at 1 x 10^-4 mole after 48 hr by SRB assay; assay type: functional
THP-1 [13] = assay: Cytotoxicity against Homo sapiens (human) THP1 cells assessed as growth inhibition at 5 x 10^-5 mole after 48 hr by SRB assay; assay type: functional
THP-1 [14] = assay: Cytotoxicity against Homo sapiens (human) THP1 cells assessed as growth inhibition at 1 x 10^-4 mole after 48 hr by SRB assay; assay type: functional
COLO 205 [15] = assay: Cytotoxicity against Homo sapiens (human) COLO205 cells assessed as growth inhibition at 5 x 10^-5 mole after 48 hr by SRB assay; assay type: functional
PC-3 [16] = assay: Cytotoxicity against Homo sapiens (human) PC3 cells assessed as growth inhibition at 1 x 10^-5 mole after 48 hr by SRB assay; assay type: functional
MCF7 [17] = assay: Cytotoxicity against Homo sapiens (human) MCF-7 cells assessed as growth inhibition at 1 x 10^-5 mole after 48 hr by SRB assay; assay type: functional
IGROV-1 [18] = assay: Cytotoxicity against Homo sapiens (human) IGROV1 cells assessed as growth inhibition at 1 x 10^-5 mole after 48 hr by SRB assay; assay type: functional
A549 [19] = assay: Cytotoxicity against Homo sapiens (human) A549 cells assessed as growth inhibition at 1 x 10^-5 mole after 48 hr by SRB assay; assay type: functional

SMILES | IC50 (COLO 205 [1]) | growth inhibition (GI) (PC-3 [2]) | growth inhibition (GI) (A549 [3]) | growth inhibition (GI) (MCF7 [4]) | growth inhibition (GI) (A549 [5]) | growth inhibition (GI) (IGROV-1 [6]) | growth inhibition (GI) (PC-3 [7]) | growth inhibition (GI) (SF-295 [8]) | growth inhibition (GI) (MCF7 [9]) | growth inhibition (GI) (IGROV-1 [10]) | growth inhibition (GI) (SF-295 [11]) | growth inhibition (GI) (COLO 205 [12]) | growth inhibition (GI) (THP-1 [13]) | growth inhibition (GI) (THP-1 [14]) | growth inhibition (GI) (COLO 205 [15]) | growth inhibition (GI) (PC-3 [16]) | growth inhibition (GI) (MCF7 [17]) | growth inhibition (GI) (IGROV-1 [18]) | growth inhibition (GI) (A549 [19])
O=C(O)/C(=C\c1ccccc1)c1ccccc1 | 85.4 µM | 4% | 52% | 41% | 54% | 0% | 0% | 14% | 29% | 0% | 25% | – | – | – | – | – | – | – | –
COc1cc(OC)c(OC)cc1/C=C(\C(=O)O)c1ccccc1 | – | 28% | 0% | – | 20% | – | 4% | – | – | – | – | 16% | 0% | 21% | 5% | – | – | – | –
O=C(O)/C(=C\C=C\c1ccccc1)c1ccccc1 | – | 9% | 10% | – | 43% | – | 0% | – | – | – | – | 44% | 8% | 35% | 15% | – | – | – | –
COc1cc(/C=C(\C(=O)O)c2ccccc2)cc(OC)c1OC | 88 µM | 22% | 21% | 63% | 65% | 1% | 10% | 13% | 54% | 0% | 25% | – | – | – | – | – | – | – | –
CO[C@@]12[C@H](COC(N)=O)C3=C(C(=O)C(C)=C(N)C3=O)N1C[C@@H]1N[C@@H]12 [MITOMYCIN] | – | – | – | – | – | – | – | – | – | – | – | – | – | – | – | 58% | 65% | – | –
COc1ccc(/C=C(\C(=O)O)c2ccccc2)cc1O | – | 23% | 0% | 24% | 20% | 17% | 12% | 0% | 14% | 8% | 12% | – | – | – | – | – | – | – | –
O=C(O)/C(=C\c1ccccc1[N+](=O)[O-])c1ccccc1 | – | 22% | 15% | – | 25% | – | 10% | – | – | – | – | 60% | 0% | 0% | 32% | – | – | – | –
CC(=O)O[C@H]1C(=O)[C@@]2(C)[C@H]([C@H](OC(=O)c3ccccc3)[C@]3(O)C[C@H](OC(=O)[C@H](O)[C@@H](NC(=O)c4ccccc4)c4ccccc4)C(C)=C1C3(C)C)[C@]1(OC(C)=O)CO[C@@H]1C[C@@H]2O [PACLITAXEL] | – | – | – | – | – | – | – | – | – | – | – | – | – | – | – | – | – | 66% | 67%
COc1ccc(OC)c(/C=C(\C(=O)O)c2ccccc2)c1 | – | 0% | 0% | – | 10% | – | 0% | – | – | – | – | 0% | 0% | 4% | 0% | – | – | – | –
O=C(O)/C(=C\c1cccc(O)c1O)c1ccccc1 | 96.5 µM | 74% | 52% | 26% | 52% | 31% | 31% | – | 14% | 15% | – | – | – | – | – | – | – | – | –
O=C(O)/C(=C\c1cccc(Cl)c1)c1ccccc1 | – | 68% | 32% | 0% | 32% | 38% | 30% | – | 0% | 0% | – | – | – | – | – | – | – | – | –
COc1cccc(/C=C(\C(=O)O)c2ccccc2)c1OC | 3.9 µM | 4% | 60% | 52% | 89% | 11% | 2% | 8% | 25% | 6% | 24% | – | – | – | – | – | – | – | –
O=C(O)/C(=C\c1ccccc1Cl)c1ccccc1 | – | 52% | 12% | 10% | 12% | 42% | 36% | – | 5% | 32% | – | – | – | – | – | – | – | – | –
O=C(O)/C(=C\c1ccc(Cl)cc1)c1ccccc1 | 34 µM | 42% | 61% | 22% | 61% | 0% | 14% | – | 10% | 0% | – | – | – | – | – | – | – | – | –
COc1ccc(/C=C(\C(=O)O)c2ccccc2)c(OC)c1OC | – | 7% | 0% | – | 0% | – | 0% | – | – | – | – | 0% | 0% | 0% | 0% | – | – | – | –
CC(=O)Oc1ccccc1/C=C(\C(=O)O)c1ccccc1 | – | 60% | 10% | 20% | 10% | 18% | 53% | – | 6% | 6% | – | – | – | – | – | – | – | – | –
O=C(O)/C(=C\c1ccc2c(c1)OCO2)c1ccccc1 | – | 39% | 0% | 39% | 45% | 32% | 11% | 15% | 32% | 0% | 38% | – | – | – | – | – | – | – | –
O=C(O)/C(=C\c1cccc2ccccc12)c1ccccc1 | > 100 µM | 35% | 0% | – | 0% | – | 26% | – | – | – | – | 70% | 0% | 22% | 51% | – | – | – | –
